Results on one compound are retold here after ChEMBL document CHEMBL4011620, “Design and Discovery of N-(2-Methyl-5'-morpholino-6'-((tetrahydro-2H-pyran-4-yl)oxy)-[3,3'-bipyridin]-5-yl)-3-(trifluoromethyl)benzamide (RAF709): A Potent, Selective, and Efficacious RAF Inhibitor Targeting RAS Mutant Cancers” (J Med Chem, 2017).

The test system of series [1] is RAF proto-oncogene serine/threonine-protein kinase (Homo sapiens), P04049 [Y340E,Y341E].
Series [2] is described as follows: Protein binding in rat plasma. In kind it is ADME, cell-free. The note with it: read-out: PPB (converted).
Series [3] deals with Plasma. Put plainly: Plasma concentration in mouse xenografted with human Calu6 cells at 10 mg/kg, po administered as single dose measured at 24 hrs post dose by LC-MS analysis. The class given is ADME, organism-based. As to conditions: in vivo, BLD = below limit of detection.
The nature of series [4]: AUC (infinity) in dog at 1 mg/kg, po. In kind it is ADME, organism-based, Canis lupus familiaris. The arrangement: dose 1 mg/kg, time infinity, route oral. As to conditions: in vivo.
The subject of series [5] is Plasma. Put plainly: Plasma concentration in po dosed mouse xenografted with human Calu6 cells administered as single dose measured after 1 to 24 hrs post dose by LC-MS analysis. In kind it is ADME, organism-based. As to conditions: in vivo.
Series [6] in a line: Clearance in rat at 3 mg/kg, iv or 10 mg/kg, po. In kind it is ADME, organism-based. As to conditions: in vivo.
Series [7] deals with Calu-6. Put plainly: Antitumor activity against human Calu6 cells xenografted in nude mouse assessed as effect on tumor volume at 30 mg/kg/day, po administered for 15 days starting on day 12 post tumor implantation measured on day 27 relative to control. The class given is functional. A general note: A xenograft is tissue or cells of one species grown in another, often human tumour cells in immunodeficient mice.

For series [8], the system named is Mus musculus. Put plainly: In vivo inhibition of ERK1/2 phosphorylation at Thr202/Tyr204 and Thr185/Tyr187 in mouse xenografted with human Calu6 cells at 10 to 30 mg/kg, po administered as single dose measured at 24 hrs post dose. In kind it is functional, organism-based.
Series [9] in a line: Apparent permeability across apical to basolateral side in human Caco2 cells at pH 7.4 by LC/MS/MS analysis. As to conditions: Caco-2, pH 7.4. (In general: Caco-2 monolayers are a common model of the intestinal barrier.)
Series [10] concerns Serine/threonine-protein kinase B-raf (Homo sapiens), P15056 [V600E]. Put plainly: Binding affinity to human BRAF V600E mutant (429 to 741 residues) expressed in mammalian expression system at 1 uM by kinome scan assay relative to control.
Chain of Serine/threonine-protein kinase B-raf (Homo sapiens), P15056 [V600E] (P15056 whole entry V600E, the tested form may be a part): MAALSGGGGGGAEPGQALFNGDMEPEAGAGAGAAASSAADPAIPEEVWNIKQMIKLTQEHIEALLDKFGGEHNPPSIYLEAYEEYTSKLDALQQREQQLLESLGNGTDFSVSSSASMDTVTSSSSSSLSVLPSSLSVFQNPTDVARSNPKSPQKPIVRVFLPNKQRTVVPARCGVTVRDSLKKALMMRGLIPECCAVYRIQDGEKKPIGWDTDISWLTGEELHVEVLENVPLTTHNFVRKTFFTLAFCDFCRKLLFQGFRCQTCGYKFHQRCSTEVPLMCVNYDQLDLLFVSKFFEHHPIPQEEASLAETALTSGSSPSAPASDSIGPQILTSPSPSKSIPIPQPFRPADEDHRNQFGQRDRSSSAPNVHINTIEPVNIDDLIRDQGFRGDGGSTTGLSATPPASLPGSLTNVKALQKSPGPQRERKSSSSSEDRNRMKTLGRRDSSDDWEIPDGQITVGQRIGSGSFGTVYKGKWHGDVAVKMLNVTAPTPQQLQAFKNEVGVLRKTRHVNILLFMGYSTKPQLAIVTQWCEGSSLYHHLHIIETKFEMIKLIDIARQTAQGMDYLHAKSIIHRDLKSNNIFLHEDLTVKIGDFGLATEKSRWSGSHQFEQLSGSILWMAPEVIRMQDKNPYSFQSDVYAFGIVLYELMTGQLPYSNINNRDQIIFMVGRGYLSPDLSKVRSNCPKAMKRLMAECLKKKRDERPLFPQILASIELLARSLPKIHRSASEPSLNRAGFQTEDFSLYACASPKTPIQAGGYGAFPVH
Series [11] in a line: Volume of distribution at steady state in rat at 3 mg/kg, iv or 10 mg/kg, po. The note with it: in vivo, read-out: Vdss. In kind it is ADME, organism-based.
In series [12] the target is Serine/threonine-protein kinase B-raf (Homo sapiens, UniProt P15056). The series can be described thus: Inhibition of full-length BRAF (unknown origin).
Chain of Serine/threonine-protein kinase B-raf (P15056 whole entry): as the sequence (P15056 whole entry V600E, the tested form may be a part) above, with E600V counted along it
Series [13] is described as follows: Apparent permeability across basolateral to apical side in human Caco2 cells at pH 7.4 by LC/MS/MS analysis. The note with it: Caco-2, pH 7.4.
The nature of series [14]: Oral bioavailability in mouse at 3 mg/kg. The class given is ADME, organism-based. As to conditions: in vivo.
Series [15] concerns Mus musculus. The series can be described thus: Toxicity in nude mouse xenografted with human PC3 cells assessed as body weight loss at 200 mg/kg/day, po administered from day 12 until day 25 post tumor implantation measured twice per week of compound dosing. The class given is organism-based. As to conditions: in vivo.
The nature of series [16]: Clearance in dog at 0.3 mg/kg, iv or 1 mg/kg, po. In kind it is ADME, organism-based, Canis lupus familiaris. As to conditions: in vivo.

Active and inactive are the calls of the source. The rule behind the calls is not given here.

What is called AUC(0-inf) is the area under the concentration-time curve extrapolated to infinity. A lower AUC(0-inf) goes with less exposure. As a reminder, the T/C is the ratio of treated to control. A word on the Papp A→B: it is how fast a substance crosses the layer from the apical side. One may read the IC50 as the concentration needed to halve the response being measured. Read a high IC50 as weaker potency. As usually defined, the Papp B→A is the apparent permeability from the basolateral to the apical side of a cell layer. The bioavailability is dose-corrected exposure relative to a reference, in per cent. A lower bioavailability goes with little systemic uptake. In [1], `Cc1ncc(NC(=O)c2cccc(C(F)(F)F)c2)cc1-c1cnc(OC2CCOCC2)c(N2CCOCC2)c1` returned a T1/2 of more than 6.5 h. Further, the fraction unbound in [2] is 0.02. For the same compound, in [3], the Cp entry is listed as “Bld”. In series [4], this compound registered an AUC(0-inf) of 1 µM·h. The Drug uptake result in series [5] is given as “Dose-dependent effect”. Also, the clearance in series [6] came out at 50 mL/min/kg; in series [16] it was 14 mL/min/kg. Further, the T/C in series [7] turned out to be 46%. In addition, the inhibition result in series [8] is “inactive”. Moreover, the Papp A→B in [9] is 15 ×10⁻⁶ cm/s. Besides, the Activity in series [10] is more than 99%; in [15], “Non-Toxic”. For the same compound, the Vd in series [11] turned out to be 3.5 L/kg. The compound also displayed an IC50 in [12] of 0.4 nM. The Papp B→A in series [13] is 13 ×10⁻⁶ cm/s. Also, the bioavailability in series [14] turned out to be 68%.
